Data from the supplement of paper PMC10307832.

Experiments:
Test in all cases: relative viability (nuclei count vs DMSO), 5 days (fraction); higher = more cells survive
[1] = compound: CC1=CC(=CC=C1)NC2=NC(=CS2)C3=CC=NC=C3 + CC(=O)Nc1cccc(-n2c(=O)n(C3CC3)c(=O)c3c(Nc4ccc(I)cc4F)n(C)c(=O)c(C)c32)c1 [Trametinib] (partner 0.02 µM)
Summary of the method: (§1)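 Medians of duplicate plates are given as relative viability. That measure is the nuclei count in treated wells divided by the count in vehicle wells. Counts were taken on 4× images of lung cancer cell lines in 1536-well plates, 5 days after pin-tool dosing the day after seeding with one drug alone or a fixed anchor-drug dose plus five library-drug doses (not always all listed) in √10 steps.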

[2] = compound: CC1=CC(=CC=C1)NC2=NC(=CS2)C3=CC=NC=C3 + Cc1nc(NC(=O)N2CCC[C@H]2C(N)=O)sc1-c1ccnc(C(C)(C)C(F)(F)F)c1 [Alpelisib] (partner 2 µM)
Summary of the method: as §1

[3] = compound: CC1=CC(=CC=C1)NC2=NC(=CS2)C3=CC=NC=C3 + N=C(N)NC(=N)NCCc1ccccc1 [Phenformin] (partner 250 µM)
Summary of the method: as §1

Masitinib + Vorinostat = compound: Cc1ccc(NC(=O)c2ccc(CN3CCN(C)CC3)cc2)cc1Nc1nc(-c2cccnc2)cs1 [Masitinib] + O=C(CCCCCCC(=O)Nc1ccccc1)NO [Vorinostat] (partner 1 µM)
Summary of the method: as §1

Cell Line	relative viability ([1]; first compound 0.08 µM)	relative viability ([1]; first compound 0.253 µM)	relative viability ([1]; first compound 0.8 µM)	relative viability ([1]; first compound 2.53 µM)	relative viability ([1]; first compound 8 µM)	relative viability ([2]; first compound 0.08 µM)	relative viability ([2]; first compound 0.253 µM)	relative viability ([2]; first compound 0.8 µM)	relative viability ([2]; first compound 2.53 µM)	relative viability ([2]; first compound 8 µM)	relative viability ([3]; first compound 0.08 µM)	relative viability ([3]; first compound 0.253 µM)	relative viability ([3]; first compound 0.8 µM)	relative viability ([3]; first compound 2.53 µM)	relative viability ([3]; first compound 8 µM)	relative viability (Masitinib + Vorinostat; first compound 0.01 µM)	relative viability (Masitinib + Vorinostat; first compound 0.03162 µM)	relative viability (Masitinib + Vorinostat; first compound 0.1 µM)	relative viability (Masitinib + Vorinostat; first compound 0.3162 µM)	relative viability (Masitinib + Vorinostat; first compound 1 µM)
NCI-H322M	0.482	0.534	0.509	0.552	0.52	0.747	0.868	0.771	0.903	0.853	0.63	0.726	0.788	0.854	0.797	0.831	0.821	0.881	0.91	0.882
NCI-H358	0.121	0.141	0.133	0.142	0.136	0.662	0.772	0.645	0.929	0.791	0.371	0.35	0.353	0.402	0.387	0.72	0.658	0.773	0.641	0.616
NCI-H441	0.363	0.418	0.623	0.348	0.349	0.659	0.75	0.73	0.577	0.811	0.8	0.782	0.892	0.823	0.78	0.856	0.75	1.12	1.01	0.894
NCI-H460	0.0961	0.0855	0.0743	0.0913	0.111	0.331	0.368	0.375	0.37	0.307	0.478	0.499	0.511	0.479	0.438	0.766	0.418	0.841	0.647	0.758
NCI-H520	0.592	0.671	0.757	0.707	0.716	0.741	0.855	0.726	1.09	1.02	0.514	0.538	0.651	0.308	0.559	0.796	0.703	0.755	0.932	0.687
NCI-H596	0.731	0.761	0.575	0.642	0.586	0.421	0.402	0.35	0.412	0.401	0.727	0.789	0.733	0.68	0.669	0.702	0.546	0.545	0.533	0.588
NCI-H647	0.408	0.379	0.387	0.424	0.279	1.05	0.935	1.11	1.08	0.751	0.413	0.489	0.5	0.534	0.515	0.503	0.533	0.592	0.693	0.619
NCI-H650	0.837	1.07	1.04	0.956	0.964	0.929	1.14	1.16		1.11	0.426	0.407	0.476	0.372	0.502	0.458	0.527	0.415	0.484	0.404
NCI-H661	0.478	0.583	0.579	0.54	0.48	0.469	0.462	0.971	0.724	1.01	0.281	0.3	0.278	0.285	0.284	0.785	0.801	0.774	0.805	0.821
NCI-H727	0.422		0.439		0.405	0.44	0.497	0.53	0.508	0.469		0.376	0.586	0.477	0.4	1.13	1.36	1.38	0.988	1.09
NCI-H838	0.446	0.458	0.443	0.372	0.407	0.91	0.914	0.868	0.863	0.743	0.466	0.521	0.537	0.508	0.51	0.7	0.664	0.773	0.639	0.703
NCI-H1355	0.388	0.298	0.275	0.294	0.269	0.719	0.512	0.483	0.51	0.587	0.343	0.376	0.391	0.429	0.362	0.631	0.518	0.633	0.464	0.577
NCI-H1395	0.939		0.964	0.724	0.898	0.838	0.909	1.23	1.01	0.992	0.402	0.422	0.46	0.367	0.407	0.765	0.613	0.787	0.774	0.637
NCI-H1437	0.439	0.48	0.434	0.274	0.313	1.03	0.968	0.885	0.922	0.763	0.253	0.25	0.309	0.253	0.246	0.798	0.799	0.932	0.789	0.75
NCI-H1651	0.825	0.795	0.755	0.82	0.794	0.973	0.992	0.967	0.944	0.959	0.346	0.318	0.34	0.33	0.316	0.577	0.543	0.56	0.529	0.55
NCI-H1666	0.578	0.728	0.684	0.523	0.6	0.44	0.597	0.447	0.472	0.298	0.526	0.489	0.547	0.513	0.451	1.08	0.875	1.09	1.02	1.09
